Literature values in patent US20090203685A1, “ANTI-PROLIFERATIVE COMPOUNDS FROM A 3-ARYL-COUMARINE OR 3-ARYL-QUINOLIN-2-ONE AND USES THEREOF” (EOS (ETHICAL ONCOLOGY SCIENCE) S.P.A., priority 2006, published 2009).

How the values were obtained:
SCLC tumor = conditions: in vivo; cited from earlier work
[1] = system: small cell lung carcinoma (SCLC) and lymphoid cells; conditions: cited from earlier work

## CN(C)CC[C@H](CSc1ccccc1)Nc1ccc(S(=O)(=O)NC(=O)c2ccc(N3CCN(Cc4ccccc4-c4ccc(Cl)cc4)CC3)cc2)cc1[N+](=O)[O-] [ABT-737]
SCLC tumor
  SCLC tumor regression in mouse models: induces SCLC tumor regression
[1]
  Apoptosis of SCLC and lymphoid cells: induces apoptosis
